Data as given in patent US20220265629A1, “TREATMENT OF SYSTOLIC DYSFUNCTION AND HEART FAILURE WITH REDUCED EJECTION FRACTION WITH THE COMPOUND (R)-4-(1-((3-(DIFLUOROMETHYL)-1-METHYL-1H-PYRAZOL-4-YL)SULFONYL)-1-FLUOROETHYL)-N-(ISOXAZOL-3-YL)PIPERIDINE-1-CARBOXAMIDE” (MyoKardia, Inc., priority 2019, published 2022).
Read-outs that look alike come from different tables or passages of the source.

Assay: HFrEF study Part 1 (SAD Cohorts 1 and 2): plasma pharmacokinetics
Assay type: in vivo, human
Conditions: for Cmax / Tmax / AUC(0-t) / AUC(0-inf) / half-life: human, plasma, oral; for AUC(0-t): read-out: AUC0-24; for Plasma concentration, Mean / Plasma concentration, Median: pooled SAD Cohorts 1 and 2
Excerpt: Part 1 was a randomized, crossover, DB, placebo-controlled, two-cohort, sequential ascending (oral) single-close study in ambulatory patients with heart failure. All patients received placebo and 2 or 3 active doses of Compound I. Each patient underwent sequential, single-close treatment events separated by no fewer than 5 days and no more than 14 days. Patients in Cohort 1 may also return for a fourth dosing period (open label) after the SRC reviews available data and recommends the close. Patients enrolled prior to the implementation of Amendment 1 may be offered the opportunity to return for the open-label period. Patients in Cohort 2 participated in 2 to 4 dosing periods, based on SRC decision. Patients were randomized to one of the different dosing sequences outlined in FIG. 5A. Multiple patients could be closed at the same time or during the same week depending on administrative issues, i.e., capacity and scheduling.
For each dosing period, patients were admitted to the clinical site on Day −1. Patients were assessed for absence of exclusion criteria (e.g., new lab abnormalities and/or conditions that indicate the patient is clinically unstable). They received Compound I or placebo in the morning of Day 1 followed by serial PK and PD assessments, as well as serial safety assessments. Patients were discharged on Day 3 (i.e., ˜48 hours following Day 1 dosing). An additional outpatient plasma PK sample was taken on the morning of Day 4 at 72 hours postclose.
Study medication consisted of Compound I 5 mg tablets, 25 mg tablets, 100 mg tablets, or matching placebo tablets. In Part 1 (SAD), Compound I or placebo was administered after an overnight fast (at least 6 hours), while in Part 2 (MAD), Compound I was administered after a 2 hour fast (Cohort A) or with food (Cohorts B, C, and D). The close was ingested with a minimum of 240 mL of water, but more water was ingested as needed. The entire close was administered over a period of up to 15 minutes. The time of close used to determine future assessments was the time the last tablet was taken. In the cohorts for Part 2 (MAD), a BID regimen was used.
In Part 1 (SAD), patients fasted overnight (approximately 6 hours) through 4 hours postclose. With the exception of the water consumed with the close, water could be ingested until approximately 1 hour prior to dosing and approximately 1 hour after dosing. If closes were split, subjects fasted 6 hours prior to the first half-close. A light, low-fat snack could be consumed 2 hours after the first half-close and a fast continued through 2 hours after the second half-close.
Eight patients with stable heart failure were enrolled and randomized to receive Compound I or placebo at a dose of 175, 350, 525, 450 (split close), or 550 mg (split close) in a crossover study design with four periods (A-D). All patients had heart failure with a nonischemic etiology and a mean Baseline ejection fraction of 43%. All eight subjects received placebo, 175 mg, and 350 mg (in random sequence) during Periods A to C. Six subjects elected to continue into a fourth open-label Period D, and closes received included: 350 mg (n=1), 525 mg (n=2), 450 mg (divided into 2 aliquots; n=1) and 550 mg (divided into 2 aliquots, n=2). The single doses were administered to patients under fasted conditions. The split closes were given four hours apart with patients fasting six hours prior to the first half-close and 2 hours after the second half-close, with a light snack allowed 2 hours after the first half-close. Subsequently, patients underwent extended observation, followed by a washout period. This process was repeated until each patient had received at least three closes (Compound I or placebo).
Four subjects with stable heart failure were enrolled and randomized to receive Compound I or placebo at a dose of 400 mg (split close) or 500 mg (split close) over three periods (A-C). […]

[1] = 175 mg, SAD Cohort 1, 175 mg (n = 8)
[2] = 350 mg, SAD Cohort 1, 350 mg (n = 8)
[3] = 350 mg, SAD Cohort 1, 4th dose 350 mg (n = 1)
[4] = 400 mg, SAD Cohort 2, 400 mg split dose (n = 4)
[5] = 450 mg, SAD Cohort 1, Split dose 450 mg (n = 1)
[6] = 500 mg, SAD Cohort 2, 500 mg split dose (n = 4)
[7] = 525 mg, SAD Cohort 1, 525 mg (n = 2)
[8] = 550 mg, SAD Cohort 1, Split dose 550 mg (n = 2)

In the case of `Cn1cc(S(=O)(=O)[C@@](C)(F)C2CCN(C(=O)Nc3ccon3)CC2)c(C(F)F)n1` [Compound I, (R)-4-(1-((3-(difluoromethyl)-1-methyl-1H-pyrazol-4-yl)sulfonyl)-1-fluoroethyl)-N-(isoxazol-3-yl)piperidine-1-carboxamide], the “AUC0-∞” value (SAD Cohort 1, 175 mg (n = 8)) was 53,800 h × ng/mL, the “AUC0-∞” value (SAD Cohort 1, 350 mg (n = 8)) was 103,000 h × ng/mL and the “AUC0-∞” value (SAD Cohort 1, 525 mg (n = 2)) was 127,000 h × ng/mL. The Cmax (175 mg, 175 mg single dose, read-out: Cmax, mean (SD)) was 1510 ng/mL, the Tmax [1] was 4.93 h and the AUC(0-t) [1] was 27 µg·h/mL. For the same molecule, the Cmax (175 mg, SAD Cohort 1, 175 mg (n = 8), read-out: Cmax) was 1510 ng/mL, the Cmax (350 mg, 350 mg single dose, read-out: Cmax, mean (SD)) was 2760 ng/mL and the Tmax [2] was 6.15 h. For the same molecule, the AUC(0-t) [2] was 50.5 µg·h/mL, the Cmax (350 mg, SAD Cohort 1, 350 mg (n = 8), read-out: Cmax) was 2760 ng/mL and the Tmax [3] was 4.05 h. For the same molecule, the AUC(0-t) [3] was 70.1 µg·h/mL, the Cmax (350 mg, SAD Cohort 1, 4th dose 350 mg (n = 1), read-out: Cmax) was 3590 ng/mL and the Tmax [4] was 9 h. For the same molecule, the AUC(0-t) [4] was 162 µg·h/mL, the Cmax (400 mg, SAD Cohort 2, 400 mg split dose (n = 4), read-out: Cmax) was 5460 ng/mL and the Tmax [5] was 12 h. It also gave an AUC(0-t) [5] of 79.2 µg·h/mL, a Cmax (450 mg, SAD Cohort 1, Split dose 450 mg (n = 1), read-out: Cmax) of 4420 ng/mL and a Tmax [6] of 8.5 h. It also gave an AUC(0-t) [6] of 191 µg·h/mL, a Cmax (500 mg, SAD Cohort 2, 500 mg split dose (n = 4), read-out: Cmax) of 5880 ng/mL and a Cmax (525 mg, 525 mg single dose, read-out: Cmax, mean (SD)) of 2720 ng/mL. For the same molecule, the Tmax [7] was 5.74 h, the AUC(0-t) [7] was 54 µg·h/mL and the Cmax (525 mg, SAD Cohort 1, 525 mg (n = 2), read-out: Cmax) was 2720 ng/mL. It also gave a Tmax [8] of 8.93 h, an AUC(0-t) [8] of 97.9 µg·h/mL and a Cmax (550 mg, SAD Cohort 1, Split dose 550 mg (n = 2), read-out: Cmax) of 5280 ng/mL. It also gave an AUC(0-inf) (175 mg single dose, read-out: AUC0-∞, mean (SD)) of 53.8 µg·h/mL, an AUC(0-inf) (350 mg single dose, read-out: AUC0-∞, mean (SD)) of 103 µg·h/mL and an AUC(0-inf) (525 mg single dose, read-out: AUC0-∞, mean (SD)) of 127 µg·h/mL. The half-life (HFrEF patients (Cohort 1), read-out: half-life) was 20 to 25 h, the half-life (SAD Cohort 1, 175 mg (n = 8), read-out: t½ (converted)) was 22 h and the half-life (SAD Cohort 1, 350 mg (n = 8), read-out: t½ (converted)) was 21 h. It also gave a half-life (SAD Cohort 1, 525 mg (n = 2), read-out: t½ (converted)) of 24.7 h, an AUC(0-inf) (SAD Cohort 1, Split dose 450 mg (n = 1), read-out: AUC0-∞) of 235 µg·h/mL and a half-life (SAD Cohort 1, Split dose 450 mg (n = 1), read-out: t½ (converted)) of 30.6 h. For the same molecule, the AUC(0-inf) (SAD Cohort 1, Split dose 550 mg (n = 2), read-out: AUC0-∞) was 213 µg·h/mL, the half-life (SAD Cohort 1, Split dose 550 mg (n = 2), read-out: t½ (converted)) was 21.5 h and the AUC(0-inf) (SAD Cohort 2, 400 mg split dose (n = 4), read-out: AUC0-∞) was 192 µg·h/mL. It also gave a half-life (SAD Cohort 2, 400 mg split dose (n = 4), read-out: t½ (converted)) of 24.1 h, an AUC(0-inf) (SAD Cohort 2, 500 mg split dose (n = 4), read-out: AUC0-∞) of 231 µg·h/mL and a half-life (SAD Cohort 2, 500 mg split dose (n = 4), read-out: t½ (converted)) of 24 h. The “Plasma concentration, Mean” value (group <2000 ng/mL) was 1390 ng/mL, the “Plasma concentration, Median” value (group <2000 ng/mL) was 1307 ng/mL and the “Plasma concentration, Mean” value (group ≥2000 ng/mL) was 3823 ng/mL. The “Plasma concentration, Median” value (group ≥2000 ng/mL) was 3795 ng/mL.
